Source: PMC10184130

Columns and labels:
Format in all cases: biochemical
human C1s = biological target: T1, human C1s (Homo sapiens, UniProt P09871); assay: Human C1s enzyme assay; details: 95% confidence intervals in parentheses
T1 construct: Recombinant human C1s (358–688 aa) fused with both the N-terminal IgG signal peptide; IgG signal peptide (N); His tag (C); made in house; host or cells: HEK293 cells
T1 sequence (P09871 358-688): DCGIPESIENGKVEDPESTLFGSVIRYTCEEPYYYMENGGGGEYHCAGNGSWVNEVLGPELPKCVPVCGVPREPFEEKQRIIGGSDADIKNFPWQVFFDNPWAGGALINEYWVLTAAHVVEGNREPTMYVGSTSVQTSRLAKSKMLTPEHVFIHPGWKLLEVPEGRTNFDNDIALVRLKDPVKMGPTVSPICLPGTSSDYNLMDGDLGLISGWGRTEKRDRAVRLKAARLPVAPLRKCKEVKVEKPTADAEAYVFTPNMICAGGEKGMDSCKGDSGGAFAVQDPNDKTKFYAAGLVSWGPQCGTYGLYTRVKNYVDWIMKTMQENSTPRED
Protocol: Recombinant human C1s (358–688 aa) fused with both the N-terminal IgG signal peptide and the C-terminal His tag was expressed in HEK293 cells and purified. The assay was performed in a 384-well clear plate in a total volume of 20 μL of an assay buffer 1 [50 mmol/L Tris–HCl (pH 7.5), 150 mmol/L NaCl, 0.01% (w/v) Tween 20, and 0.01% (w/v) BSA]. Compounds were dissolved in DMSO and diluted to various concentrations. After 20 nL of compound solution was added to the plate, 10 μL of substrate solution containing a 250 μmol/L Z-Lys-SBzl peptide (Watanabe Chemical, Hiroshima, Japan) and 250 μmol/L DTNB (5,5′-dithiobis(2-nitrobenzoic acid)) (Sigma, MO, USA) was added to the plate. Then, 8 nmol/L human C1s was added to the plate and incubated at room temperature for 60 min. The absorbance at 405 nm was detected using an EnVision multilabel plate reader. […] The IC50 values were calculated using IDBS XLfit software.

human C1r = biological target: T2, human C1r (Homo sapiens, UniProt P00736); assay: Human C1r enzyme assay; details: supplementary csv
T2 construct: Recombinant human C1r (375–705 aa) fused with both the N-terminal IgG signal peptide; IgG signal peptide (N); His tag (C); made in house; host or cells: HEK293 cells
T2 sequence (P00736 375-705): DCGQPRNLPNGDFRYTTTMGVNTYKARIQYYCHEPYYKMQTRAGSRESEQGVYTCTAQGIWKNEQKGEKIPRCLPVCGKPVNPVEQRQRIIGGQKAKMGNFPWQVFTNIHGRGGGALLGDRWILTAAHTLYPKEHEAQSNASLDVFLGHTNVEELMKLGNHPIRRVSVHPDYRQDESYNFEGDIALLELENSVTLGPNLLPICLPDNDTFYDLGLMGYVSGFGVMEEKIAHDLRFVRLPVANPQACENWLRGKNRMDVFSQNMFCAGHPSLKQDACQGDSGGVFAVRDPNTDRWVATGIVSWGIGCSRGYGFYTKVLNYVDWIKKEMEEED
From the text: Recombinant human C1r (375–705 aa) fused with both the N-terminal IgG signal peptide and the C-terminal His tag was expressed in HEK293 cells and purified. Human C1r assay conditions were the same as for human C1s, except that the enzyme solution concentration was 3 nmol/L and the substrate peptide was 250 μmol/L Z-Gly-Arg-SBzl (custom synthesis from Peptide Institute, Osaka, Japan) instead of Z-Lys-SBzl.

human MASP2 = biological target: T3, human MASP2 (Homo sapiens, UniProt O00187); assay: Human MASP2 enzyme assay; details: supplementary csv
T3 construct: Recombinant human MASP2 (298–686 aa) fused with both the N-terminal IgG signal peptide; IgG signal peptide (N); His tag (C); made in house; host or cells: Expi293 cells
T3 sequence (O00187 298-686): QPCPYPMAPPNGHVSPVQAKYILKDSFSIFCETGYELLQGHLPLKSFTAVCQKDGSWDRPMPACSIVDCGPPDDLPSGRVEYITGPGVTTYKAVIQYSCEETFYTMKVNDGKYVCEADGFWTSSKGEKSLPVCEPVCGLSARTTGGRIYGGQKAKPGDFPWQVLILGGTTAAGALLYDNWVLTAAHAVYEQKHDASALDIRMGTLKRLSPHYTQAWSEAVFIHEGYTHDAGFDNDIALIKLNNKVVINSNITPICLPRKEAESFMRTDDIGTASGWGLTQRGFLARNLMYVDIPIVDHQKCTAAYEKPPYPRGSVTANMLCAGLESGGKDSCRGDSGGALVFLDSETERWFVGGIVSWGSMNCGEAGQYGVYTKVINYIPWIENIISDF
Protocol: Recombinant human MASP2 (298–686 aa) fused with both the N-terminal IgG signal peptide and the C-terminal His tag was expressed in Expi293 cells and purified. The assay was performed in a 384-well black plate in a total volume of 6 μL of the assay buffer 1. After 20 nL of compound solution was added to the plate, 3 μL of substrate solution containing a 20 μmol/L Z-Gly-Arg-SBzl peptide and 20 μmol/L BES-Thio (FUJIFILM Wako, Osaka, Japan) was added to the plate. Then, 0.6 nmol/L human MASP2 was added to the plate and incubated at room temperature for 60 min. The fluorescence at an excitation wavelength of 485 nm and an emission wavelength of 535 nm was detected using an EnVision multilabel plate reader.

human thrombin = biological target: T4, human thrombin (Homo sapiens, UniProt P00734); assay: Human thrombin enzyme assay; details: supplementary csv
T4 construct: purchased AnaSpec
Protocol: The human thrombin enzyme activity was determined by a SensoLyte 520 thrombin activity assay kit (AnaSpec, CA, USA). Purified human thrombin and the substrate were diluted in the assay buffer 1. After 20 nL of compound solution was added to a 384-well black plate, 3 μL of the 2 μmol/L 5-FAM/QXLTM 520 thrombin substrate was added to the plate. Then, 8 nmol/L human thrombin was added to the plate and incubated at room temperature for 60 min. The fluorescence at an excitation wavelength of 485 nm and an emission wavelength of 535 nm was detected using an EnVision multilabel plate reader.

human trypsin = assay: Human trypsin enzyme assay; details: supplementary csv
Protocol: Recombinant human trypsin (FUJIFILM Wako, Osaka, Japan) and the substrate were diluted in an assay buffer [50 mmol/L Tris–HCl (pH 7.5), 145 mmol/L NaCl, 2 mmol/L CaCl2, and 0.01% (w/v) Tween 20]. After 20 nL of compound solution was added to a 384-well black plate, 3 μL of substrate solution containing 25 μmol/L Boc-Phe-Ser-Arg-MCA (Peptide Institute, Osaka, Japan) was added to the plate. Then, 6 mU/mL human trypsin was added to the plate and incubated at room temperature for 60 min. The fluorescence at an excitation wavelength of 360 nm and an emission wavelength of 460 nm was detected using an EnVision multilabel plate reader.

IC50 (human C1s): 0.036 µM
IC50 (human C1r): > 30 µM
IC50 (human MASP2): > 30 µM
IC50 (human thrombin): > 30 µM
IC50 (human trypsin): > 30 µM
SMILES: Cc1cc([C@H]2CN(c3cc(F)c4c(N)nncc4c3)CCN2c2cccc(F)c2)no1 [Compound (R)-8, 8-Fluoro-6-[(3R)-4-(3-fluorophenyl)-3-(5-methyl-1,2-oxazol-3-yl)piperazin-1-yl]phthalazin-1-amine]
